According to US5266576A, “N-myristoyl transferase inhibitors” (Adir et Compagnie, priority 1991, dated 1993):
Read-outs that look alike come from different tables or passages of the source.

What was measured:
[1] = target: T1, cytosolic NMT (N-myristoyltransferase) of L1210 cells (Mus musculus, UniProt O70310); test: Inhibition of the cytosolic NMT activity of cancerous L1210 cells; type: biochemical, murine
T1 construct: The supernatant is then used as a source of NMT; endogenous in cells; host or cells: L1210 murine leukemia cells, cytosol (105,000 g supernatant)
T1 sequence (O70310 1-496): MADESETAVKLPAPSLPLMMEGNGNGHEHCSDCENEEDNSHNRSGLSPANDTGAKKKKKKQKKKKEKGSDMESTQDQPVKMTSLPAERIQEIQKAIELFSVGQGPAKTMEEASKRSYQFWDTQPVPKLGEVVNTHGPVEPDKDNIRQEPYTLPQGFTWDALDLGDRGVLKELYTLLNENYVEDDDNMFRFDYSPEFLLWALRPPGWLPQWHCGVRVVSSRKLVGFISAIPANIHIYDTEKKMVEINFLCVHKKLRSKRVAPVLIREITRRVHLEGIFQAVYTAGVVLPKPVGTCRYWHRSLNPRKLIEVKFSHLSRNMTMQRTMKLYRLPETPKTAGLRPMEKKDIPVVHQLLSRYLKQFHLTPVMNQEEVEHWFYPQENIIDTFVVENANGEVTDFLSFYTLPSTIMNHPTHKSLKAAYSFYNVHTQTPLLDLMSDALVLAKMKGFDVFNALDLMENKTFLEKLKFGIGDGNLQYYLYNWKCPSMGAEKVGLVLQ
Method: Mass-cultured L1210 cells (murine leukemia) are used as a source of […].
They are cultured in RPMI 1640 supplemented with 50 U/ml of penicillin, […] of streptomycin, 2 mM of glutamine, 10 mM HEPES and 10% of fetal calf serum, maintained in a 5% CO2 /95% air atmosphere and at 37° C.
They are harvested and then washed in PBS by centrifuging at low speed. The final cell pellet is resuspended in a 50 mM HEPES buffer, pH 7.4, containing 2 mM EGTA, 1 mM DTT and 1 mM PMSF. The cells are opened by sonication at 4° C. and homogenized by a to and fro movement in a glass/glass Potter. The cell homogenate is then centrifuged at low speed (10,000 rpm, 10 minutes) in order to precipitate the cell debris and the supernatant is subjected to ultracentrifugation at 105,000 g for 1 hour.
The supernatant is then used as a source of NMT. The measurement of activity is carried out according to the method described by Towler and Glazer (PNAS, 1986, 83, 2812) using as substrate peptide either the peptide derived from the NH2 terminal of the pp60src oncogene product: GSSKSKPKDP (DP), or the peptide derived from the NH2 terminal of the gag product, a structural protein of the Maloney murine leucemic virus: GQTVTTPL (T3) at a final concentration of 0.3 mM.

[2] = target: T2, microsomal NMT of CEM cells (Homo sapiens, UniProt P30419); test: Inhibition of the myristoylation of a gag-derived peptide of HIV-1 (subtype BRU), microsomal fraction of CEM cells; type: biochemical; conditions: 20-AA p18 peptide of HIV-1 (subtype BRU), 30 minutes at 37° C., read-out: IC50 during incubation with the microsomal fraction
T2 construct: The pellet (microsomes) and the supernatant (cytosol) are recovered independently and then frozen; endogenous in cells; host or cells: CEM immortalized T lymphocytes, microsomal pellet (105,000 g), treated with Triton 770
T2 sequence (P30419 1-496): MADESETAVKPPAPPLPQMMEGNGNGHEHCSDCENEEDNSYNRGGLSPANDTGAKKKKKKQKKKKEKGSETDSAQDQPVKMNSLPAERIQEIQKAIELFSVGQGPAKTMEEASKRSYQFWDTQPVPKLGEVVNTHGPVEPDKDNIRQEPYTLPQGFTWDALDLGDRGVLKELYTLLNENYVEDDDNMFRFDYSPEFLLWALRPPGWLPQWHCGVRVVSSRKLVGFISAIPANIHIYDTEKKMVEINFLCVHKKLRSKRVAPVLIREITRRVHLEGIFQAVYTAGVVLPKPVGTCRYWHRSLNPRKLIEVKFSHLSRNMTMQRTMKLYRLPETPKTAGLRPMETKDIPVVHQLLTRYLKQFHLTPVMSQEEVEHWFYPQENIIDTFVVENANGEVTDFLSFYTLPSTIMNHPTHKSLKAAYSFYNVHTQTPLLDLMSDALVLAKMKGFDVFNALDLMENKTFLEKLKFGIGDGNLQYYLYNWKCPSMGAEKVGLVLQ
Method: Immortalized T lymphocytes (CEM) are mass- cultured as described in Example 57, and then harvested by centrifugation and washed in PBS.
These cells are sonicated (3 brief periods of 10 seconds) and then homogenized in a glass/glass Potter.
This homogenate, in which all the cells have been opened (checked under a microscope), is subjected to centrifugation for 1 h 10) at 105,000 g. The pellet (microsomes) and the supernatant (cytosol) are recovered independently and then frozen.
The NMT activity is then measured following the procedure of Towler and Glaser but stopping the reaction with […] of acetonitrile in order to avoid precipitation of the myristoylated peptide. This 20-AA peptide: NH2^[…] COOH, is derived from p18 of the HIV-1 virus (subtype BRU).
These experimentations are carried out using a cytosolic (40 μl) or microsomal (20 μl treated with 4 μl of 10% Triton 770) source of CEM cells in the presence of increasing concentrations of the compounds of the invention (1 to 1,000 μM, final). The samples, incubated for 30 minutes at 37° C. and stopped with 200 μl of acetonitrile, are then analyzed by HPLC and the myristoylation of p18 quantified.

[3] = system: HL60 cells; test: Differentiation of cultured HL60 cells; type: cell-based, human
Method: Cultured HL60 cells are treated for 6 days with the compounds dissolved in a minimum of methanol at 9 different concentrations. The doses chosen encompass the IC50 determined beforehand using the MTT test (Carmichael et al., Cancer Res., 1986, 47, 936).
The cells are washed (450 μl), resuspended in the same volume of complete medium and incubated for 1 hour at 37° C. in the presence of 7 ug/ml of DNA-specific fluorochrome.
The measurements, which are carried out by means of a laser cytometer, make it possible to estimate the percentage of cells accumulated, and therefore differentiated, in the G0 and G1 phase of the cell cycle.

[4] = system: HIV-1 virus; test: Protective effect on CEM cells against infection by the HIV virus; type: cell-based
Description: The method used is described by […] et al. (J. Natl. Cancer Inst., 1989, 81, 577).

[5] = Toxicity on CEM cells in the HIV protection test; type: cell-based; conditions: human, method of WEISLOW et al., unit printed m, read-out: toxicity (IC50)
Description: The method used is described by WEISLOW et al. (J. Natl. Cancer Inst., 1989, 81, 577).

[6] = HL60 cells, 6 days, cells accumulated in G0 and G1 phase, laser cytometer

IC50 ([1]; cytosolic NMT of L1210 cells, substrate peptide DP (pp60src) or T3 (gag), 0.3 mM, read-out: IC50) [µM] | IC50 [2] [µM] | EC50 ([4]; Human immunodeficiency virus 1, CCRF-CEM, HIV infection, method of WEISLOW et al.) [µM] | Structure (SMILES) | doses to which the marked differentiating effect can extend [3, 6] | IC50 [1] [µM] | doses to which the marked differentiating effect can extend ([3]; 144 h) | therapeutic index ([4]; toxicity IC50 / protective EC50) | CC50 [5] [µM]
0.18 | 100 | – | CCCCCCCCCCCCCC(=O)N1Cc2ccccc2C[C@H]1C(=O)O [Example 1, N-Myristoyl-3-(S)-carboxy-(1,2,3,4)-tetrahydroisoquinoline] | below 50 ug/ml | – | – | – | –
– | – | – | CCCCCCCCCCCCCC(=O)NC(Cc1ccccc1)P(=O)(O)OCC (stereo not drawn) [Example 16, ETHYL 1-MYRISTOYLAMINO-2-[…]] | – | 2 | below 50 ug/ml | – | –
– | – | 10 | COCCCCCCCCCCCC(=O)N[C@@H](Cc1ccccc1)C(=O)O [Example 49, N-(12-METHOXYLAUROYL)-(S)-PHENYLALANINE] | below 50 ug/ml | – | – | 20 | 200
